Measured values published in article PMC7985749 (CNS Drugs, 2021).

Key:
[1] = Plasma pharmacokinetics, single ascending dose; format: in vivo, human; settings: for Tmax / half-life / AUC(0-inf) / AUC(0-t) / Cmax / Vd/F: human, plasma
[2] = Adverse events / TEAEs, MAD cohort; format: in vivo, human

Nc1nnc(CN[C@@H]2C[C@H]2c2ccc(OCc3ccccc3)cc2)o1 [vafidemstat]
Variability, overall coefficient of variation ([1]; SAD and MAD cohorts, plasma PK): ≤ 30% | Tmax ([1]; both, oral): 0.5 to 2 h | half-life ([1]; both, oral): 20 to 30 h | AUC(0-inf) ([1]; male, po, 0.2 mg): 30.9 ng·h/mL | AUC(0-t) ([1]; male, po, 0.2 mg): 28 ng·h/mL | Cmax ([1]; male, po, 0.2 mg): 1.11 ng/mL | Tmax ([1]; male, po, 0.2 mg): 2.75 h | Vd/F ([1]; male, po, 0.2 mg): 260 L | half-life ([1]; male, po, 0.2 mg): 28 h | AUC(0-inf) ([1]; male, po, 0.6 mg): 90.7 ng·h/mL | AUC(0-t) ([1]; male, po, 0.6 mg): 83.3 ng·h/mL | Cmax ([1]; male, po, 0.6 mg): 3.21 ng/mL | Tmax ([1]; male, po, 0.6 mg): 1.83 h | Vd/F ([1]; male, po, 0.6 mg): 256 L | half-life ([1]; male, po, 0.6 mg): 27 h | AUC(0-inf) ([1]; male, po, 1.5 mg): 428 ng·h/mL | AUC(0-t) ([1]; male, po, 1.5 mg): 297 ng·h/mL | Cmax ([1]; male, po, 1.5 mg): 11.9 ng/mL | Tmax ([1]; male, po, 1.5 mg): 0.92 h | Vd/F ([1]; male, po, 1.5 mg): 213 L | half-life ([1]; male, po, 1.5 mg): 41 h | AUC(0-inf) ([1]; male, po, 2.5 mg): 438 ng·h/mL | AUC(0-t) ([1]; male, po, 2.5 mg): 402 ng·h/mL | Cmax ([1]; male, po, 2.5 mg): 18.8 ng/mL | Tmax ([1]; male, po, 2.5 mg): 1.58 h | Vd/F ([1]; male, po, 2.5 mg): 203 L | half-life ([1]; male, po, 2.5 mg): 25 h | AUC(0-inf) ([1]; male, po, 4 mg): 568 ng·h/mL | AUC(0-t) ([1]; male, po, 4 mg): 550 ng·h/mL | Cmax ([1]; male, po, 4 mg): 38 ng/mL | Tmax ([1]; male, po, 4 mg): 1.71 h | Vd/F ([1]; male, po, 4 mg): 204 L | half-life ([1]; male, po, 4 mg): 20 h | Number of AEs related to the study treatment ([2]; MAD stage, healthy young volunteers, with vafidemstat): 44 | Number of TEAEs (% of total TEAEs): Asthenia ([2]; MAD, 0.2 mg/day, n = 6): 2 (3.3) n (%) | Number of TEAEs (% of total TEAEs): Dizziness postural ([2]; MAD, 0.2 mg/day, n = 6): 1(1.6) n (%) | Number of TEAEs (% of total TEAEs): Feeling hot ([2]; MAD, 0.2 mg/day, n = 6): 1(1.6) n (%) | Number of TEAEs (% of total TEAEs): Headache ([2]; MAD, 0.2 mg/day, n = 6): 3 (4.9) n (%) | Number of TEAEs (% of total TEAEs): Hematoma ([2]; MAD, 0.2 mg/day, n = 6): 1 (1.6) n (%) | Number of TEAEs (% of total TEAEs): Muscle spasms ([2]; MAD, 0.2 mg/day, n = 6): 1(1.6) n (%) | Number of TEAEs (% of total TEAEs): Palpitations ([2]; MAD, 0.2 mg/day, n = 6): 1 (1.6) n (%) | Number of TEAEs (% of total TEAEs): Total ([2]; MAD, 0.2 mg/day, n = 6): 10 (16.4) n (%) | Number of TEAEs (% of total TEAEs): Apathy ([2]; MAD, 0.6 mg/day, n = 6): 1 (1.6) n (%) | Number of TEAEs (% of total TEAEs): Asthenia ([2]; MAD, 0.6 mg/day, n = 6): 1 (1.6) n (%) | Number of TEAEs (% of total TEAEs): Blunted affect ([2]; MAD, 0.6 mg/day, n = 6): 2 (3.3) n (%) | Number of TEAEs (% of total TEAEs): Daydreaming ([2]; MAD, 0.6 mg/day, n = 6): 1 (1.6) n (%) | Number of TEAEs (% of total TEAEs): Dyspepsia ([2]; MAD, 0.6 mg/day, n = 6): 1 (1.6) n (%) | Number of TEAEs (% of total TEAEs): Euphoric mood ([2]; MAD, 0.6 mg/day, n = 6): 1 (1.6) n (%) | Number of TEAEs (% of total TEAEs): Feeling drunk ([2]; MAD, 0.6 mg/day, n = 6): 1 (1.6) n (%) | Number of TEAEs (% of total TEAEs): Headache ([2]; MAD, 0.6 mg/day, n = 6): 1 (1.6) n (%) | Number of TEAEs (% of total TEAEs): Somnolence ([2]; MAD, 0.6 mg/day, n = 6): 2 (3.3) n (%) | Number of TEAEs (% of total TEAEs): Total ([2]; MAD, 0.6 mg/day, n = 6): 11 (18.0) n (%) | Number of TEAEs (% of total TEAEs): Asthenia ([2]; MAD, 1.0 mg/day, n = 6): 1 (1.6) n (%) | Number of TEAEs (% of total TEAEs): Constipation ([2]; MAD, 1.0 mg/day, n = 6): 1 (1.6) n (%) | Number of TEAEs (% of total TEAEs): Dizziness postural ([2]; MAD, 1.0 mg/day, n = 6): 1 (1.6) n (%) | Number of TEAEs (% of total TEAEs): Dry mouth ([2]; MAD, 1.0 mg/day, n = 6): 4 (6.5) n (%) | Number of TEAEs (% of total TEAEs): Feeling cold ([2]; MAD, 1.0 mg/day, n = 6): 3 (4.9) n (%) | Number of TEAEs (% of total TEAEs): Headache ([2]; MAD, 1.0 mg/day, n = 6): 2 (3.3) n (%) | Number of TEAEs (% of total TEAEs): Nasopharyngitis ([2]; MAD, 1.0 mg/day, n = 6): 1 (1.6) n (%) | Number of TEAEs (% of total TEAEs): Total ([2]; MAD, 1.0 mg/day, n = 6): 13 (21.3) n (%) | Number of TEAEs (% of total TEAEs): Dry mouth ([2]; MAD, 1.5 mg/day, n = 6): 3 (4.9) n (%) | Number of TEAEs (% of total TEAEs): Headache ([2]; MAD, 1.5 mg/day, n = 6): 2 (3.3) n (%) | Number of TEAEs (% of total TEAEs): Salivary hypersecretion ([2]; MAD, 1.5 mg/day, n = 6): 1 (1.6) n (%) | Number of TEAEs (% of total TEAEs): Somnolence ([2]; MAD, 1.5 mg/day, n = 6): 1 (1.6) n (%) | Number of TEAEs (% of total TEAEs): Total ([2]; MAD, 1.5 mg/day, n = 6): 7 (11.5) n (%) | Number of TEAEs (% of total TEAEs): Dry mouth ([2]; MAD, 2.5 mg/day, n = 6): 1 (1.6) n (%) | Number of TEAEs (% of total TEAEs): Total ([2]; MAD, 2.5 mg/day, n = 6): 1 (1.6) n (%) | Number of TEAEs (% of total TEAEs): Headache ([2]; MAD, 4.0 mg/day, n = 3): 2 (3.3) n (%) | Number of TEAEs (% of total TEAEs): Total ([2]; MAD, 4.0 mg/day, n = 3): 2 (3.3) n (%)
